Source: BindingDB's records for doi:10.1021/acs.jmedchem.8b01183 (2018)

Experiments:
[1] = target: T1, Sigma intracellular receptor 2 (Rattus norvegicus, UniProt Q5U3Y7); assay: Displacement of [3H]-di-o-tolylguanidine from sigma2 receptor in rat liver membranes incubated for 120 mins by scintillation counting method
T1 sequence (Q5U3Y7 whole entry): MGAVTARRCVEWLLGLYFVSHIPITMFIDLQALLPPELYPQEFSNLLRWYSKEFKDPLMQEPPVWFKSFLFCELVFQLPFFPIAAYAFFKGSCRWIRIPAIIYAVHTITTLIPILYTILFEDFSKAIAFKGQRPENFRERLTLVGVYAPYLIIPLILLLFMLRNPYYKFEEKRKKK

[2] = target: Sigma non-opioid intracellular receptor 1 (Cavia porcellus, UniProt Q60492); assay: Displacement of [3H]-(+)-pentazocine from sigma1 receptor in guinea pig brain cortex membranes incubated for 120 mins by scintillation counting method
Chain of Sigma non-opioid intracellular receptor 1 (Q60492 whole entry): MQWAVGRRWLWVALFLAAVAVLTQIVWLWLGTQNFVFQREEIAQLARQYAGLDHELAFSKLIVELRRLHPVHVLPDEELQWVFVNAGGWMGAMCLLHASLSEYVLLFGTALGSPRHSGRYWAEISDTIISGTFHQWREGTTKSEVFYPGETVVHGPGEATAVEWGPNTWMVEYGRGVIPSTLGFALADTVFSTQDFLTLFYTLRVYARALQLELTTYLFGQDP

[3] = target: Kappa-type opioid receptor (Cavia porcellus, UniProt P41144); assay: Displacement of [3H]U-69,593 from KOR in guinea pig brain membranes incubated for 120 mins by scintillation counting method
Chain of Kappa-type opioid receptor (P41144 whole entry): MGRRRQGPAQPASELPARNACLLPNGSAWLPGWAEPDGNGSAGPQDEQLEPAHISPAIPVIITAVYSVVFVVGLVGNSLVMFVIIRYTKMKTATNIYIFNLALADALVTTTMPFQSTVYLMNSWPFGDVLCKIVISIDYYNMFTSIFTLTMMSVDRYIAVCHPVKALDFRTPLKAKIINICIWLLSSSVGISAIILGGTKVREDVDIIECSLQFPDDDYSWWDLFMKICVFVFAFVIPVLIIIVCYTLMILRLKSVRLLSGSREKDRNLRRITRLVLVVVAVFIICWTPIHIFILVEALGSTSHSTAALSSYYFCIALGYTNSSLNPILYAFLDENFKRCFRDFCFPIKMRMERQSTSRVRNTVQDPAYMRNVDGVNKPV

[4] = target: Delta-type opioid receptor (Rattus norvegicus, UniProt P33533); assay: Displacement of [3H]DPDPE from DOR in rat brain membranes incubated for 120 mins by scintillation counting method
Chain of Delta-type opioid receptor (P33533 whole entry): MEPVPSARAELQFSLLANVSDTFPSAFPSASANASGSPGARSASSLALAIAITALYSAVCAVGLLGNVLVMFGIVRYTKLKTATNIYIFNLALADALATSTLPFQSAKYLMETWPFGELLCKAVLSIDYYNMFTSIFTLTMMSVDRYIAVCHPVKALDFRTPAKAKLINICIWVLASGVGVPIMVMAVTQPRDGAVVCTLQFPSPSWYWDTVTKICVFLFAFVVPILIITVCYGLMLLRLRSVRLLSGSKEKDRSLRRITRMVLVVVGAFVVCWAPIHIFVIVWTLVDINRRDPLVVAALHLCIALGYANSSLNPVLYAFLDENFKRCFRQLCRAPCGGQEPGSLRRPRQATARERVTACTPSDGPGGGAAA

[5] = target: Mu-type opioid receptor (Homo sapiens, UniProt P35372); assay: Agonist activity at human MOR expressed in CHOK1 cells assessed as reduction in forskolin-induced intracellular cAMP increase after 45 mins by HTRF analysis
Chain of Mu-type opioid receptor (Homo sapiens, UniProt P35372) (P35372 whole entry): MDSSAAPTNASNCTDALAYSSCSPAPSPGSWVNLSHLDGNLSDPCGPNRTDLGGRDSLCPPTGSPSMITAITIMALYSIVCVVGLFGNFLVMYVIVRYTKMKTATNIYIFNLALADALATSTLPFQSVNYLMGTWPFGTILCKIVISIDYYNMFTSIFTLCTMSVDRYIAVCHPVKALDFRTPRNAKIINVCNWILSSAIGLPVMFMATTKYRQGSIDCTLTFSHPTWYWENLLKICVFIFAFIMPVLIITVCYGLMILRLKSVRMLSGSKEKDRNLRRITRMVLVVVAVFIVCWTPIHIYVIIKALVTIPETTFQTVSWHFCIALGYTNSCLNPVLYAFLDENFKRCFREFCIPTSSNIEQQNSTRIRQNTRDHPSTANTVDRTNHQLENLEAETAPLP

[6] = target: Mu-type opioid receptor (Cavia porcellus, UniProt P97266); assay: Displacement of [3H]DAMGO from MOR in guinea pig brain membranes incubated for 120 mins by scintillation counting method
Chain of Mu-type opioid receptor (Cavia porcellus, UniProt P97266) (P97266 whole entry): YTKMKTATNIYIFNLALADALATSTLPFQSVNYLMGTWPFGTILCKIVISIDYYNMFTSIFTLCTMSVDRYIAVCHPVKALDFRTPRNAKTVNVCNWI

Row | Ki [1] [µM] | Ki [2] [µM] | Structure (SMILES) | also measured
1 | 0.302 | > 1 | Cc1ccc(CNC2CCC3(CC2)O[C@H](CCF)Cc2ccccc23)c(C)c1 (stereo partly specified) | 
2 |  | > 1 | CCOC(=O)C[C@@H]1Cc2ccccc2C2(CCC(NCc3ccc(C)cc3C)CC2)O1 (stereo partly specified) | 
3 |  | 0.012 | CCOC(=O)C[C@H]1Cc2ccccc2C2(CCC(N3CCN(C4CCCCC4)CC3)CC2)O1 (stereo partly specified) | Ki [3]: > 1 µM; Ki [4]: > 1 µM; EC50 [5]: > 10 µM
4 | > 1 | > 1 | COc1cc2c(cc1OC)CN(C1CCC3(CC1)O[C@H](CCO)Cc1ccccc13)CC2 (stereo partly specified) | 
5 |  | 0.012 | FCC[C@@H]1Cc2ccccc2C2(CCC(N3CCN(C4CCCCC4)CC3)CC2)O1 (stereo partly specified) | Ki [6]: > 1 µM; Ki [3]: > 1 µM; Ki [4]: > 1 µM
6 | 0.505 | > 1 | COc1cc2c(cc1OC)CN(C1CCC3(CC1)O[C@@H](CCF)Cc1ccccc13)CC2 (stereo partly specified) | 
7 |  | > 1 | CCOC(=O)C[C@H]1Cc2ccccc2C2(CCC(N3CCc4cc(OC)c(OC)cc4C3)CC2)O1 (stereo partly specified) | 
8 | 0.505 |  | OCC[C@H]1Cc2ccccc2C2(CCC(N3CCN(C4CCCCC4)CC3)CC2)O1 (stereo partly specified) | 
9 |  |  | O[C@H]1Cc2ccccc2C2(CCC(N3CCN(C4CCCCC4)CC3)CC2)O1 (stereo partly specified) | Ki [6]: > 1 µM; Ki [4]: > 1 µM; EC50 [5]: > 10 µM
10 |  |  | FCC[C@H]1Cc2ccccc2C2(CCC(N3CCN(C4CCCCC4)CC3)CC2)O1 (stereo partly specified) | Ki [3]: > 1 µM
11 | > 1 |  | CO[C@@H]1Cc2ccccc2C2(CCC(NCc3ccccc3)CC2)O1 (stereo partly specified) | 
12 | > 1 |  | CO[C@H]1Cc2ccccc2C2(CCC(NCc3ccccc3)CC2)O1 (stereo partly specified) | 
13 |  | > 1 | CO[C@H]1Cc2ccccc2C2(CCC(NCc3ccc(C)cc3C)CC2)O1 (stereo partly specified) | 
14 |  | > 1 | COc1cc2c(cc1OC)CN(C1CCC3(CC1)O[C@@H](OC)Cc1ccccc13)CC2 (stereo partly specified) | 
15 | 0.302 |  | O[C@@H]1Cc2ccccc2C2(CCC(N3CCN(C4CCCCC4)CC3)CC2)O1 (stereo partly specified) | 
16 | > 1 | > 1 | COc1cc2c(cc1OC)CN(C1CCC3(CC1)O[C@@H](O)Cc1ccccc13)CC2 (stereo partly specified) | 
17 |  | 0.012 | CCOC(=O)C[C@@H]1Cc2ccccc2C2(CCC(N3CCN(C4CCCCC4)CC3)CC2)O1 (stereo partly specified) | 
18 | > 1 | > 1 | CCOC(=O)C[C@@H]1Cc2ccccc2C2(CCC(N3CCc4cc(OC)c(OC)cc4C3)CC2)O1 (stereo partly specified) | 
19 |  | > 1 | Cc1ccc(CNC2CCC3(CC2)O[C@H](CCO)Cc2ccccc23)c(C)c1 (stereo partly specified) | 
20 | > 1 | > 1 | COc1cc2c(cc1OC)CN(C1CCC3(CC1)O[C@@H](CCO)Cc1ccccc13)CC2 (stereo partly specified) | 
21 | > 1 |  | Cc1ccc(CNC2CCC3(CC2)O[C@@H](CCF)Cc2ccccc23)c(C)c1 (stereo partly specified) | 
22 | > 1 |  | COc1cc2c(cc1OC)CN(C1CCC3(CC1)O[C@H](CCF)Cc1ccccc13)CC2 (stereo partly specified) | 
23 | > 1 | > 1 | CO[C@@H]1Cc2ccccc2C2(CCC(NCCCc3cn(-c4ccc(F)cc4)c4ccccc34)CC2)O1 (stereo partly specified) | 
24 | > 1 |  | CO[C@H]1Cc2ccccc2C2(CCC(NCCCc3cn(-c4ccc(F)cc4)c4ccccc34)CC2)O1 (stereo partly specified) | 
25 |  | > 1 | CO[C@@H]1Cc2ccccc2C2(CCC(NC3CCc4ccccc4CC3)CC2)O1 (stereo partly specified) | 

Row | Structure (SMILES) | Ki [1] [µM] | Ki [2] [µM] | also measured
26 | Cc1ccc(CNC2CCC3(CC2)O[C@@H](O)Cc2ccccc23)c(C)c1 (stereo partly specified) |  | > 1 | 
